The record followed here is US8030354B2, “Substituted biphenyl GPR40 modulators” (Amgen Inc., priority 2007, dated 2011).

Assay [1] addresses T1, GPR40 (Homo sapiens, UniProt O14842). Put plainly: Cell-based aequorin assay (CHO cells stably expressing GPR40 and aequorin). Also on record: expressed in transfected cells; host or cells: CHO cells stably transfected with GPR40 and aequorin. Conditions: activation of human GPR40, CHO cells, 0.01% HSA. In a few lines: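 CHO cells stably co-expressing GPR40 and aequorin, loaded with coelenterazine (1 ug/mL, 2 h, room temperature) in H/HBSS with 20 mM Hepes and 0.01% fatty acid-free HSA. Serially diluted compounds added; luminescence recorded over 20 s. EC50 from dose-response of maximum relative light units.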

Assay [2] has as its target T1, GPR40. As to the kind of experiment: Inositol phosphate accumulation assay (A9_GPR40 cells). The class given is cell-based. Also on record: expressed in transfected cells; host or cells: CHO cells stably transfected with GPR40 and aequorin. Conditions: inositol phosphate assay, A9_GPR40 cells, 1 hour; read-out: IP3 EC50. In a few lines:
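A9 cells stably expressing GPR40 were labelled 16 h with 1 μCi/mL ^3H-inositol in inositol-free DMEM with dialysed FBS. Compounds in HBSS/10 mM LiCl with HSA were applied for 1 h at 37° C, then quenched with 20 mM formic acid. Accumulated [^3H] inositol phosphates were counted by SPA.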

As a reminder, the EC50 is the midpoint of the concentration-response curve.

Some results are limits rather than exact numbers.

T1 sequence (O14842 whole entry): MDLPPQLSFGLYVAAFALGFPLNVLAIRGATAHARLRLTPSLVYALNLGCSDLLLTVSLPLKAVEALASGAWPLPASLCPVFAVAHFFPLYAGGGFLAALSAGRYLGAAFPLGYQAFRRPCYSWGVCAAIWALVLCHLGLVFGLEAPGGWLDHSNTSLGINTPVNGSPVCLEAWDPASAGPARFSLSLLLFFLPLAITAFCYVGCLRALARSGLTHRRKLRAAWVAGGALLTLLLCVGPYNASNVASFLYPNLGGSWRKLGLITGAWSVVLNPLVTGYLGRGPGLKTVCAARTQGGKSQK

`COc1ccc(F)c(-c2ccc(COc3cccc(C(C)CC(=O)O)c3)cc2C2CCCC2(C)C)c1` (single isomer, unassigned) [Example 64.22, (3R)-3-(3-(((2-(2,2-Dimethylcyclopentyl)-2′-fluoro-5′-(methyloxy)-1,1′-biphenyl-4-yl)methyl)oxy)phenyl)butanoic acid or (3S)-3-(3-(((2-(2,2-dimethylcyclopentyl)-2′-fluoro-5′-(methyloxy)-1,1′-biphenyl-4-yl)methyl)oxy)phenyl)butanoic acid]: the results for the EC50 at GPR40 [1] and at GPR40 [2] were 100 to 1000 nM and 10 to 100 nM, respectively.
`CCC(CC(=O)O)c1cccc(OCc2ccc(-c3cc(OC)ccc3F)c(C3=CCCC3(C)C)c2)c1` (single isomer, unassigned) [Example 65.1, (3R)-3-(3-(((2-(5,5-Dimethyl-1-cyclopenten-1-yl)-2′-fluoro-5′-(methyloxy)-1,1′-biphenyl-4-yl)methyl)oxy)phenyl)pentanoic acid or (3S)-3-(3-(((2-(5,5-dimethyl-1-cyclopenten-1-yl)-2′-fluoro-5′-(methyloxy)-1,1′-biphenyl-4-yl)methyl)oxy)phenyl)pentanoic acid]: the EC50 on GPR40 [1] lay within 100 to 1000 nM; at GPR40 [2], 10 to 100 nM.
With `COc1ccc(F)c(-c2ccc(COc3cccc(C(CC(=O)O)C4CC4)c3)cc2C2CCCCCC2)c1` (single isomer, unassigned) [Example 66.2, (3S)-3-(3-(((2-Cycloheptyl-2′-fluoro-5′-(methyloxy)-1,1′-biphenyl-4-yl)methyl)oxy)phenyl)-3-cyclopropylpropanoic acid or (3R)-3-(3-(((2-cycloheptyl-2′-fluoro-5′-(methyloxy)-1,1′-biphenyl-4-yl)methyl)oxy)phenyl)-3-cyclopropylpropanoic acid], the EC50 at GPR40 [1] is 100 to 1000 nM; at GPR40 [2], 10 to 100 nM.
Regarding `COc1cccc(-c2ccc(COc3cccc(C(CC(=O)O)C4CC4)c3)cc2C2=CCCC2(C)C)c1` (single isomer, unassigned) [Example 66.3, (3S)-3-Cyclopropyl-3-(3-(((2-(5,5-dimethyl-1-cyclopenten-1-yl)-3′-(methyloxy)-1,1′-biphenyl-4-yl)methyl)oxy)phenyl)propanoic acid or (3R)-3-cyclopropyl-3-(3-(((2-(5,5-dimethyl-1-cyclopenten-1-yl)-3′-(methyloxy)-1,1′-biphenyl-4-yl)methyl)oxy)phenyl)propanoic acid], at GPR40 [1], the “Aequorin EC50” value is given as “+++/ ++++”. The EC50 at GPR40 [2] was less than 10 nM.
`COc1cccc(-c2ccc(COc3cccc(C(CC(=O)O)C4CC4)c3)cc2C2CCCCCC2)c1` (single isomer, unassigned) [Example 66.9, (3S)-3-(3-(((2-Cycloheptyl-3′-(methyloxy)-1,1′-biphenyl-4-yl)methyl)oxy)phenyl)-3-cyclopropylpropanoic acid or (3R)-3-(3-(((2-cycloheptyl-3′-(methyloxy)-1,1′-biphenyl-4-yl)methyl)oxy)phenyl)-3-cyclopropylpropanoic acid]: the EC50 at GPR40 [1] lay within 100 to 1000 nM; at GPR40 [2] it was 10 to 100 nM.
On to `COc1ccc(F)c(-c2ccc(COc3cccc(C(CC(=O)O)C4CC4)c3)cc2C2=CCCCC2(C)C)c1` (single isomer, unassigned) [Example 66.10, (3S)-3-Cyclopropyl-3-(3-(((2-(6,6-dimethyl-1-cyclohexen-1-yl)-2′-fluoro-5′-(methyloxy)-1,1′-biphenyl-4-yl)methyl)oxy)phenyl)propanoic acid or (3R)-3-cyclopropyl-3-(3-(((2-(6,6-dimethyl-1-cyclohexen-1-yl)-2′-fluoro-5′-(methyloxy)-1,1′-biphenyl-4-yl)methyl)oxy)phenyl)propanoic acid], for which the figures for the EC50 on GPR40 [1] and at GPR40 [2] were 100 to 1000 nM and less than 10 nM, respectively.
Consider `CC1(C)CCC[C@@H]1c1cc(COc2cccc([C@@H](CC(=O)O)C3CC3)c2)ccc1-c1cccc(OC(F)F)c1` (single isomer, unassigned) [Example 66.11], for which the EC50 was 100 to 1000 nM at GPR40 [1] and 10 to 100 nM on GPR40 [2].
`COc1cc(-c2ccc(COc3cccc([C@@H](CC(=O)O)C4CC4)c3)cc2C2=CCCC2(C)C)c(F)cn1` (single isomer, unassigned) [Example 66.12, (3S)-3-(3-(3-(5,5-Dimethylcyclopent-1-enyl)-4-(5-fluoro-2-methoxypyridin-4-yl)benzyloxy)phenyl)-3-cyclopropylpropanoic acid or (3R)-3-(3-(3-(5,5-dimethylcyclopent-1-enyl)-4-(5-fluoro-2-methoxypyridin-4-yl)benzyloxy)phenyl)-3-cyclopropylpropanoic acid]: the EC50 on GPR40 [1] is 100 to 1000 nM; on GPR40 [2], 10 to 100 nM.
As for `COc1ccc(F)c(-c2ccc(COc3cccc([C@@H](CC(=O)O)C4CC4)c3)cc2[C@@H](OC)C(C)(C)C)c1` (single isomer, unassigned) [Example 66.13], the EC50 was 100 to 1000 nM at GPR40 [1] and less than 10 nM on GPR40 [2].
Consider `COc1ccc(F)c(-c2ccc(COc3cccc(C(CC(=O)O)C4CC4)c3)cc2C(C)C(C)(C)C)c1` (single isomer, unassigned) [Example 66.19], for which the EC50 at GPR40 [1] was 10 to 100 nM; at GPR40 [2] it was less than 10 nM.
`COc1ccc(F)c(-c2ccc(COc3cccc([C@@H](CC(=O)O)C4CC4)c3)cc2CC(C)C)c1` (single isomer, unassigned) [Example 66.20, (3S)-3-Cyclopropyl-3-(3-(((2′-fluoro-5′-(methyloxy)-2-(2-methylpropyl)-1,1′-biphenyl-4-yl)methyl)oxy)phenyl)propanoic acid or (3R)-3-cyclopropyl-3-(3-(((2′-fluoro-5′-(methyloxy)-2-(2-methylpropyl)-1,1′-biphenyl-4-yl)methyl)oxy)phenyl)propanoic acid]: the EC50 at GPR40 [1] lay in the range of 100 to 1000 nM; on GPR40 [2] it was 10 to 100 nM.
For `COc1ccc(F)c(-c2ccc(COc3cccc([C@@H](CC(=O)O)C4CC4)c3)cc2[C@@H]2CCCCC2(C)C)c1` (single isomer, unassigned) [Example 66.22] the same measures were 10 to 100 nM and less than 10 nM.
For `COc1ccc(F)c(-c2ccc(COc3cccc([C@@H](CC(=O)O)C4CC4)c3)cc2[C@H](OC)C(C)(C)C)c1` (single isomer, unassigned) [Example 66.24] the same measures were 1000 to 10000 nM and 100 to 1000 nM.
As to `CCOc1ccc(F)c(-c2ccc(COc3cccc([C@@H](CC(=O)O)C4CC4)c3)cc2[C@@H]2CCCC2(C)C)c1` (single isomer, unassigned) [Example 66.25], the EC50 at GPR40 [1] and on GPR40 [2] was 1000 to 10000 nM each time.
`CCOc1ccc(F)c(-c2ccc(COc3cccc(C(CC(=O)O)C4CC4)c3)cc2C2CCCC2(C)C)c1` (single isomer, unassigned) [Example 66.26]: the figures for the EC50 on GPR40 [1] and on GPR40 [2] were 100 to 1000 nM and 10 to 100 nM, respectively.
For `COc1ccc(F)c(-c2ccc(COc3cccc([C@@H](CC(=O)O)C4CC4)c3)cc2[C@@H](OCc2ccccc2)C(C)(C)C)c1` (single isomer, unassigned) [Example 66.28] the same measures were 100 to 1000 nM and less than 10 nM.
As to `COc1ccc(F)c(-c2ccc(COc3cccc([C@@H](CC(=O)O)C4CC4)c3)cc2[C@H](F)C(C)(C)C)c1` (single isomer, unassigned) [Example 66.31], the EC50 lay in the range of 100 to 1000 nM on GPR40 [1] and 10 to 100 nM on GPR40 [2].
On to `COC(c1cc(COc2cccc(C(CC(=O)O)C3CC3)c2)ccc1-c1ccccc1F)C(C)(C)C` (single isomer, unassigned) [Example 66.33], for which the EC50 is 100 to 1000 nM on GPR40 [1] and 10 to 100 nM at GPR40 [2].
Regarding `COc1cc(-c2ccc(COc3cccc(C(CC(=O)O)C4CC4)c3)cc2C2=CCCCC2(C)C)c(F)cn1` (single isomer, unassigned) [Example 66.34, (3S)-3-Cyclopropyl-3-(3-(((3-(6,6-dimethyl-1-cyclohexen-1-yl)-4-(5-fluoro-2-(methyloxy)-4-pyridinyl)phenyl)methyl)oxy)phenyl)propanoic acid or (3S)-3-Cyclopropyl-3-(3-(((3-(6,6-dimethyl-1-cyclohexen-1-yl)-4-(5-fluoro-2-(methyloxy)-4-pyridinyl)phenyl)methyl)oxy)phenyl)propanoic acid], the EC50 on GPR40 [1] and on GPR40 [2] was 10 to 100 nM throughout.
On to `COc1cc(-c2ccc(COc3cccc(C(CC(=O)O)C4CC4)c3)cc2C2CCCC2(C)C)c(F)cn1` (single isomer, unassigned) [Example 66.36], for which the EC50 was 10 to 100 nM on GPR40 [1] and less than 10 nM on GPR40 [2].
With `COc1cc(-c2ccc(COc3cccc([C@@H](CC(=O)O)C4CC4)c3)cc2[C@@H]2CCCC2(C)C)c(F)cn1` (single isomer, unassigned) [Example 66.37], the EC50 on GPR40 [1] fell in the range of 100 to 1000 nM; on GPR40 [2] it was 10 to 100 nM.
On to `COc1ccc(F)c(-c2ccc(COc3cccc([C@@H](CC(=O)O)C4CC4)c3)cc2C2N(C)CCCC2(C)C)c1` (single isomer, unassigned) [Example 66.40, (S)-3-Cyclopropyl-3-{3-[2′-fluoro-5′-methoxy-2-(1,3,3-trimethyl-piperidin-2-yl)-biphenyl-4-ylmethoxy]-phenyl}-propionic acid or (R)-3-cyclopropyl-3-{3-[2′-fluoro-5′-methoxy-2-(1,3,3-trimethyl-piperidin-2-yl)-biphenyl-4-ylmethoxy]-phenyl}-propionic acid], for which the values for the EC50 at GPR40 [1] and at GPR40 [2] were 100 to 1000 nM and 10 to 100 nM, respectively.
